Source: patent US20230391752A1, “PYRROLIDINE-3-CARBOXAMIDE DERIVATIVES AND RELATED USES” (Chulalongkorn University, priority 2020, published 2023)
pEC50: −log10 of the molar value.

Tests used:
HBV [1] = assay: In vitro anti-HBV activity in HepG2.2.15 cell line (intracellular HBV DNA by qPCR at 1 μM); type: cell-based; conditions: Hepatitis B virus, 144 h; HepG2.2.15 cells, 1 μM compound, 6 days, intracellular HBV DNA as percentage compared to vehicle control (0.5% DMSO)
Method in brief: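 Intracellular HBV DNA was quantified by qPCR and given as percent of vehicle (0.5% DMSO), grouped into letter ranges. Stably transfected HepG2.2.15 cells had 6 days of exposure to 1 μM compound, with medium and compound renewed after day 3.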

[2] = Cytotoxicity (MTT) in HepG2.2.15 cells; type: cell-based; conditions: human, 6 days treatment, read-out: HepG2.1.15 cytotoxicity (CC50)
Experimental: HepG2.2.15 cells were seeded onto 96-well culture plate and allowed to adhere for 24 hours. The cells were treated with various concentrations of the compounds for 6 days. After treatment, the culture media were discarded and further incubated with serum-free media containing […] of 3-(4,5-dimethylthiazol-2-yl)-2,5-diphenyl tetrazolium bromide (MTT) for 2 hour. The resulting formazan crystals were completely dissolved in dimethyl sulfoxide (DMSO), and then measured absorbance at 570 nm using microplate reader. The concentrations of compounds producing 50% cell death (CC50) were determined from a fitting of concentration-response curve (% cell viability versus concentration) to a four-parameter equation.

HBV core protein (Cp149) = molecular target: T1, HBV core protein (Cp149) (Hepatitis B virus genotype D subtype ayw, UniProt P03146); assay: HBV capsid assembly by size exclusion chromatography (SEC); type: biochemical; conditions: 50 μM compound, 15 μM Cp149, 16 hours at 21° C.
T1 construct: HBV core C-terminally truncated protein (HBV Cp149); made in house

HBV [3] = assay: Effect on intrahepatic HBV DNA levels in HepG2.2.15 cells (EC50); type: cell-based; conditions: Hepatitis B virus, 144 h, 6 days, intrahepatic HBV DNA by qPCR, read-out: Anti-HBV DNA (EC50)
Experimental: HepG2.2.15 cells were treated with compounds, at various concentrations in 10% FCS containing medium, at 37° C. for three days. After that the medium was removed and fresh medium containing the compound was added to the cells for another 3 days. After 6 days of treatment, intrahepatic HBV DNA from cell lysates were isolated. Then qPCR reaction of DNA was performed to measure total HBV DNA levels using specific primer set. The fifty-percent effective concentrations (EC50) for HBV DNA inhibition, relative to no drug controls, was determined using nonlinear fitting curve model. EC50 ranges for HBV DNA inhibition were as follows: A>0.3 μM, B=0.05-0.3 μM, C<0.05 μM (Table B).

T1 sequence (P03146 1-149): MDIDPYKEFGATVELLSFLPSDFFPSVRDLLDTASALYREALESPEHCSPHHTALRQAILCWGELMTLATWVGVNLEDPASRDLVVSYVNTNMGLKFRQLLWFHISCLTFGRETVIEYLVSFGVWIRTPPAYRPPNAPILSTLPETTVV

| Structure (SMILES) | activity at 1 µM (HBV [1]) [%] | CC50 at 6 days [2] [nM] | Size of induced capsids based on SEC retention times (HBV core protein (Cp149)) | pEC50 (HBV [3]) |
| --- | --- | --- | --- | --- |
| C[C@H]1[C@@H](C(=O)Nc2cc(F)c(F)c(F)c2)CCN1C(=O)c1ccc(Cl)[nH]1 [Example 60, (2S,3S)-1-(5-chloro-1H-pyrrole-2-carbonyl)-2-methyl-N-(3,4,5-trifluorophenyl)pyrrolidine-3-carboxamide] | < 45 | > 25000 | induced capsids similar in size to NVR 3-778 | 6.52 to 7.30 |
| Cc1[nH]nc(C(F)(F)F)c1-c1ccc(C(=O)N2CC[C@H](C(=O)Nc3ccc(F)c(C#N)c3)[C@@H]2C)[nH]1 [Example 113, (2S,3S)—N-(3-cyano-4-fluorophenyl)-2-methyl-1-(5-(5-methyl-3-(trifluoromethyl)-1H-pyrazol-4-yl)-1H-pyrrole-2-carbonyl)pyrrolidine-3-carboxamide] | < 45 | 10000 to 25000 | induced capsids similar in size to NVR 3-778 | > 7.30 |
| Cc1cc(NC(=O)[C@H]2CCN(C(=O)c3[nH]c4ccccc4c3Cl)C2)ccc1F [Example 2, (S)-1-(3-chloro-1H-indole-2-carbonyl)-N-(4-fluoro-3-methylphenyl)pyrrolidine-3-carboxamide] | < 45 | > 25000 | capsid retention times between BAY 41-4109 and NVR 3-778 | > 7.30 |
| Cc1cc(NC(=O)[C@H]2CCN(C(=O)c3ccc(-c4c(C)cn[nH]c4=O)[nH]3)[C@H]2C)ccc1F [Example 125, (2S,3S)—N-(4-fluoro-3-methylphenyl)-2-methyl-1-(5-(5-methyl-3-oxo-2,3-dihydropyridazin-4-yl)-1H-pyrrole-2-carbonyl)pyrrolidine-3-carboxamide] | < 45 | > 25000 | induced capsids similar in size to NVR 3-778 | > 7.30 |
| Cc1cc(NC(=O)[C@H]2CCN(C(=O)c3ccc(-c4c(C)cnnc4C)[nH]3)C2)ccc1F [Example 117, (S)-1-(5-(3,5-dimethylpyridazin-4-yl)-1H-pyrrole-2-carbonyl)-N-(4-fluoro-3-methylphenyl)pyrrolidine-3carboxamide] | 45 to 60 | > 25000 |  | > 7.30 |
| O=C(Nc1cc(F)c(F)c(F)c1)[C@H]1CCN(C(=O)c2cc3ccccc3[nH]2)C1 [Example 4, (S)-1-(1H-indole-2-carbonyl)-N-(3,4,5-trifluorophenyl)pyrrolidine-3-carboxamide] | < 45 | > 25000 | induced capsids similar in size to NVR 3-778 | < 6.52 |
| Cc1ncnc(C)c1-c1ccc(C(=O)N2CC[C@H](C(=O)Nc3cc(F)c(F)c(F)c3)[C@@H]2C)[nH]1 [Example 111, (2S,3S)-1-(5-(4,6-dimethylpyrimidin-5-yl)-1H-pyrrole-2-carbonyl)-2-methyl-N-(3,4,5-trifluorophenyl)pyrrolidine-3-carboxamide] | < 45 | < 10000 | induced capsids similar in size to NVR 3-778 | > 7.30 |
| Cc1cc2[nH]ncc2cc1-c1ccc(C(=O)N2CC[C@H](C(=O)Nc3ccc(F)c(C#N)c3)C2)[nH]1 [Example 123, (S)—N-(3-cyano-4-fluorophenyl)-1-(5-(6-methyl-1H-indazol-5-yl)-1H-pyrrole-2-carbonyl) pyrrolidine-3-carboxamide] | < 45 | 10000 to 25000 | induced capsids similar in size to NVR 3-778 | 6.52 to 7.30 |
| Cc1ncnc(C)c1-c1ccc(C(=O)N2CC[C@H](C(=O)Nc3cc(F)c(F)c(Cl)c3)C2)[nH]1 [Example 100, (S)—N-(3-chloro-4,5-difluorophenyl)-1-(5-(4,6-dimethylpyrimidin-5-yl)-1H-pyrrole-2-carbonyl)pyrrolidine-3-carboxamide] | < 45 | 10000 to 25000 |  | > 7.30 |
| Cc1cnnc(C)c1-c1ccc(C(=O)N2CC[C@H](C(=O)Nc3ccc(F)c(F)c3)C2)[nH]1 [Example 115, (S)—N-(3,4-difluorophenyl)-1-(5-(3,5-dimethylpyridazin-4-yl)-1H-pyrrole-2-carbonyl)pyrrolidine-3-carboxamide] | < 45 | > 25000 | induced capsids similar in size to NVR 3-778 | 6.52 to 7.30 |
| Cc1cc(NC(=O)[C@H]2CCN(C(=O)c3ccc(-c4cccnc4C#N)[nH]3)C2)ccc1F [Example 150, (S)-1-(5-(2-cyanopyridin-3-yl)-1H-pyrrole-2-carbonyl)-N-(4-fluoro-3-methylphenyl)pyrrolidine-3-carboxamide] | < 45 | > 25000 | induced capsids similar in size to NVR 3-778 | 6.52 to 7.30 |
| Cc1cc[nH]c(=O)c1-c1ccc(C(=O)N2CC[C@H](C(=O)Nc3ccc(F)c(Cl)c3)[C@@H]2C)[nH]1 [Example 119, (2S,3S)—N-(3-chloro-4-fluorophenyl)-2-methyl-1-(5-(4-methyl-2-oxo-1,2-dihydropyridin-3-yl)-1H-pyrrole-2-carbonyl)pyrrolidine-3-carboxamide] | < 45 | > 25000 |  | 6.52 to 7.30 |
| C[C@H]1[C@@H](C(=O)Nc2cc(F)c(F)c(F)c2)CCN1C(=O)c1ccc(C#N)[nH]1 [Example 19, (2S,3S)-1-(5-cyano-1H-pyrrole-2-carbonyl)-2-methyl-N-(3,4,5-trifluorophenyl)pyrrolidine-3-carboxamide] | < 45 | > 25000 | induced capsids similar in size to NVR 3-778 | 6.52 to 7.30 |
| Cc1ncnc(C)c1-c1ccc2c(Cl)c(C(=O)N3CC[C@H](C(=O)Nc4ccc(F)c(C#N)c4)[C@@H]3C)[nH]c2c1 [Example 138, (2S,3S)-1-(3-chloro-6-(4,6-dimethylpyrimidin-5-yl)-1H-indole-2-carbonyl)-N-(3-cyano-4-fluorophenyl)-2-methylpyrrolidine-3-carboxamide] | < 45 | 10000 to 25000 | capsid retention times between BAY 41-4109 and NVR 3-778 | 6.52 to 7.30 |
| Cc1n[nH]c(C)c1-c1ccc(C(=O)N2CC[C@H](C(=O)Nc3ccc(F)c(Cl)c3)[C@@H]2C)[nH]1 [Example 105, (2S,3S)—N-(3-chloro-4-fluorophenyl)-1-(5-(3,5-dimethyl-1H-pyrazol-4-yl)-1H-pyrrole-2-carbonyl)-2-methylpyrrolidine-3-carboxamide] | < 45 | < 10000 |  | > 7.30 |
| Cc1ncnc(C)c1-c1ccc2c(Cl)c(C(=O)N3CC[C@H](C(=O)Nc4ccc(F)c(C#N)c4)C3)[nH]c2c1 [Example 135, (S)-1-(3-chloro-6-(4,6-dimethylpyrimidin-5-yl)-1H-indole-2-carbonyl)-N-(3-cyano-4-fluorophenyl)pyrrolidine-3-carboxamide] | < 45 |  | capsid retention times between BAY 41-4109 and NVR 3-778 | 6.52 to 7.30 |
| C[C@H]1[C@@H](C(=O)Nc2cc(F)c(F)c(F)c2)CCN1C(=O)c1nc2cccnc2[nH]1 [Example 70, (2S,3S)-1-(3H-imidazo[4,5-b]pyridine-2-carbonyl)-2-methyl-N-(3,4,5-trifluorophenyl)pyrrolidine-3-carboxamide] | 45 to 60 | > 25000 |  | 6.52 to 7.30 |
| C[C@H]1[C@@H](C(=O)Nc2ccc(F)c(C#N)c2)CCN1C(=O)c1ccc(Cl)[nH]1 [Example 65, (2S,3S)-1-(5-chloro-1H-pyrrole-2-carbonyl)-N-(3-cyano-4-fluorophenyl)-2-methylpyrrolidine-3-carboxamide] | < 45 | > 25000 |  | 6.52 to 7.30 |
| Cc1cnnc(C)c1-c1ccc(C(=O)N2CC[C@H](C(=O)Nc3ccc(F)c(C#N)c3)[C@@H]2C)[nH]1 [Example 116, (2S,3S)—N-(3-cyano-4-fluorophenyl)-1-(5-(3,5-dimethylpyridazin-4-yl)-1H-pyrrole-2-carbonyl)-2-methylpyrrolidine-3-carboxamide] | 45 to 60 | > 25000 |  | 6.52 to 7.30 |
